Data set [1] relates to T1, Enterococcus faecalis ATCC29212.
T1 construct: ATCC 29212
The data set is described as follows: microbe, parasite or virus in culture. Set-up: CLSI agar dilution MIC, bacterial growth inhibition. The source says: (§1) In accordance with the standards of the Clinical and Laboratory Standards Institute (CLSI),^1 the agar dilution method was used to determine the minimum inhibitory concentration (MIC). E. coli ATCC 25922 served as a quality control for antibiotic susceptibility testing. The tested antimicrobial agents included spectinomycin, tobramycin, streptomycin, netilmicin, paromomycin and amikacin (Table 2).

The test system of data set [2] is T2, Escherichia coli ACTT25922.
T2 construct: ATCC 25922
Kind of data set: microbe, parasite or virus in culture. Set-up: CLSI agar dilution MIC, bacterial growth inhibition.
From the text: as §1

Data set [3] concerns CN[C@@H]1[C@H](O)[C@H](NC)[C@H]2O[C@@]3(O)C(=O)C[C@@H](C)O[C@H]3O[C@@H]2[C@H]1O. The data set is described as follows: purified protein. It is filed as biochemical, Providencia rettgeri. The settings on record: 2 mM ATP, 10 mM MgCl2, 50 mM HEPES pH 7.5, 500 μM DTT, 37 °C.

Values after ≈ are worked out from the molar mass of the structure shown. Where only a bound is given, the exact number is not on record here.

Consider `C=C[C@]1(C)C[C@@H](OC(=O)CSCCN(CC)CC)[C@]2(C)[C@H](C)CC[C@]3(CCC(=O)[C@H]32)[C@@H](C)[C@@H]1O` [tiamulin], for which the MIC in data set [1] was 64 µg/mL (≈ 130 µM); in data set [2], over 512 µg/mL.
As for ANT(9)-Id (Providencia rettgeri), in data set [3], the Michaelis-Menten constant (Km) is 8.94 ± 2.50 µM, the kcat amounted to 232 ± 59.8 s⁻¹ and the catalytic efficiency (kcat/Km) was found to be 2.62e+07 ± 2.95e+06 M⁻¹ s⁻¹.
As to `CC(=O)c1c(C)[n+]([O-])c2ccccc2[n+]1[O-]` [mequindox], the MIC in data set [1] is 64 µg/mL (≈ 293 µM); in data set [2], 8 µg/mL (≈ 36.7 µM).
The corresponding values for `C[C@H]1c2cccc(O)c2C(=O)C2=C(O)[C@]3(O)C(=O)C(C(N)=O)=C(O)[C@@H](N(C)C)[C@@H]3[C@@H](O)[C@@H]21` [doxycycline] are 4 µg/mL (≈ 9 µM) and 1 µg/mL (≈ 2.25 µM).
For `CN(C)[C@@H]1C(O)=C(C(N)=O)C(=O)[C@@]2(O)C(O)=C3C(=O)c4c(O)cccc4[C@@](C)(O)[C@H]3C[C@@H]12` [tetracycline], the MIC in data set [1] worked out at 8 µg/mL (≈ 18 µM); in data set [2] it was 1 µg/mL (≈ 2.25 µM).
For the molecule `CC(C)(O/N=C(\C(=O)N[C@@H]1C(=O)N2C(C(=O)[O-])=C(C[n+]3ccccc3)CS[C@H]12)c1csc(N)n1)C(=O)O` [ceftazidime], the MIC in data set [1] is 128 µg/mL (≈ 234 µM); in data set [2], at most 1 µg/mL.
The corresponding values for `O=C(N[C@H](CO)[C@H](O)c1ccc([N+](=O)[O-])cc1)C(Cl)Cl` [chloramphenicol] are 4 µg/mL (≈ 12.4 µM) and 4 µg/mL (≈ 12.4 µM).
The corresponding values for `CN[C@@H]1[C@H](O[C@H]2[C@H](O[C@H]3[C@H](O)[C@@H](O)[C@H](N=C(N)N)[C@@H](O)[C@@H]3N=C(N)N)O[C@@H](C)[C@]2(O)C=O)O[C@@H](CO)[C@H](O)[C@H]1O` [streptomycin] are 128 µg/mL (≈ 220 µM) and 8 µg/mL (≈ 13.8 µM).

In general, Km refers to the concentration of substrate that gives half-maximal velocity. Broadly, the kcat is the maximal rate divided by the concentration of active sites. In general, kcat/Km refers to the turnover number divided by the Michaelis constant.

The record behind these values is PMC11669914, “Identification and characterization of a novel chromosome-encoded aminoglycoside O-nucleotidyltransferase gene, ant(9)-Id, in Providencia sp. TYF-12 isolated from the marine fish intestine” (Frontiers in Microbiology, 2024).
